Laboratory results published in US10945685B2, “System and method for normalizing standardized uptake values in brain positron emission tomography (PET) images” (New York University, priority 2018, dated 2021).
Entries after “also recorded” stand apart in the source; their conditions may differ.

Tests used:
Format in all cases: in vivo, human
[1] = Off-target binding observed on PET images; settings: observed on PET image
Protocol: (§1) PET imaging was performed using an Eminence STARGATE PET scanner (Shimadzu, Kyoto, Japan). After intravenous injection of ^18F-THK5351 (185 MBq), dynamic PET images were obtained for 60 min. acquisition matrix is 128×128×79 and voxels size is 2×2×2.6 mm. ^18F-THK5351 was synthesized. MRI was performed on all participants. T1 weighted MR images were obtained using a SIGNA 1.5-Tesla machine (General Electric, Milwaukee, Wis.). In T1-weighted MRI, a 3D volumetric acquisition of a T1-weighted gradient echo sequence produced a gapless series of thin axial sections by using a vascular TOF SPGR sequence (echo time/repetition time, 2.4/50 ms; flip angle, 45°; acquisition matrix, 256×256; 1 excitation; field of view, 22 cm; slice thickness, 2.0 mm).
(§2) AV-1451 data were downloaded from ADNI with series description “AV1451 Coreg, Avg, Std Img and Vox Siz, Uniform Resolution”. An intravenous injection of 10 mCi ^18F-AV-1451 (370 MBq) is followed by a saline flush. At approximately 75 minutes following injection, a continuous 30-minute brain scan (6 frames of 5-minute duration) was performed after a CT or transmission scan for attenuation correction. PET imaging was performed using GEMINI TF TOF 16 (Philips Medical Systems), with 6 frames; acquisition matrix 128×128×90; pixel spacing 2×2 mm; slice thickness 2 mm.
Standardized uptake value (SUV) images were obtained by normalizing tissue radioactivity concentration by injected dose and bodyweight. Estimates of tau deposition were determined for THK53151 with the 40-60 min SUV and for AV1451 with for the 80-100 min SUV. Standard SUVR was generated by using cerebellar cortex as reference. To control the variation of SUVR measures in THK5351 and AV1451 PET caused by the off-target binding in reference region, each subject's SUV images were first transferred into standardized SUVP images, using the Peak-alignment method (as described above). […]

[2] = tested on: tau; test: Tau PET tracer binding, SUVR with cerebellar cortex as reference, AD patients and NL subjects; settings: mean (SD); for GMSUVR (Cerebral GM tracer retention) / WMSUVR (Cerebral WM tracer retention): all subjects of the tracer (AD and NL)
Protocol: Subjects come from two sources. 18 subjects (9 AD patients, and 9 healthy elderly study participants) underwent ^18F-THK5351 PET scans from the memory clinic of Tohoku University Hospital. ^18F-AV-1451 scans were obtained from the ADNI (Alzheimer's Disease Neuroimaging Initiative) database (adni.loni.usc.edu). 32 Subjects (20 NL and 12 AD) with ^18F-AV-1451 were selected from ADNI, that were matched to the age and MMSE in participants of the THK5351 group.
as §1, §2
Using Free-Surfer (V. 5.1, http://surfer.nmr.mgh.harvard.edu) ROI's were determined for the cerebral gray and white matter, the cerebellar hemisphere gray matter, caudate nuclear, thalamus, ponds and subcortical regions (including frontal, parietal, occipital, medial temporal cortex and lateral temporal lobe). MRI T1 images were coregistered to the mean PET images for each participant by using statistical parametric-mapping software (SPM12; Wellcome Department of Imaging Neuroscience, UCL, London, UK).
Standardized uptake value (SUV) images were obtained by normalizing tissue radioactivity concentration by injected dose and bodyweight. Estimates of tau deposition were determined for THK53151 with the 40-60 min SUV and for AV1451 with for the 80-100 min SUV. Standard SUVR was generated by using cerebellar cortex as reference. To control the variation of SUVR measures in THK5351 and AV1451 PET caused by the off-target binding in reference region, each subject's SUV images were first transferred into standardized SUVP images, using the Peak-alignment method (as described above). In order to compare the regional SUV distribution patterns on group level, the whole brain probability density function (PDFwb) of SUVP were computed for each subject by normalizing the histograms of a subject's SUVP with the total number of intracranial voxels of that subject. Finally, the group average whole brain probability density function (PDFwb) were computed by averaging the individual subjects' PDFwb within 4 compare groups (2 tracers×2 conditions). One important advantage of SUVP over SUVR is that the Peak-alignment method standardized the range of whole brain SUV (marked in FIG. 2) into [−3,3] approximately, regardless of tracer or disease condition, thus allowing universal cutoff for different tracers, while SUVR cutoffs are tracer-dependent (e.g. 1.5 for THK and 1.19 for AV1451). Here, 1.5 is used for SUVP cutoff, representing 1.5 times std from whole brain mode. The positive binding percentage: PBP=(number of positive bring voxels)/(total number of voxels), are computed for both SUVP and SUVR in different brain tissues. […]

[3] = tested on: tau; test: AD-NL classification from tau PET: ROC AUC and AD-NL ratio of PBP; settings: for AD-NL ratio R = (average PBP of AD group)/(average PBP of NL group), SUVP / AD-NL ratio R = (average PBP of AD group)/(average PBP of NL group), SUVR: Table 5, region not stated; for AD-NL ratio (R), SUVP PBP / AD-NL ratio (R), SUVR PBP: temporal lobe
Protocol: In another embodiment, the average PBP of a particular diseased (or abnormal) group (e.g., an AD group) for a particular ROI may be compared to the PBP of a group of normal control (NL) subjects. For example, a ratio (R) of PBP may be obtained by: R=(average PBP of diseased or abnormal group)/(average PBP of NL group)
Standardized uptake value (SUV) images were obtained by normalizing tissue radioactivity concentration by injected dose and bodyweight. Estimates of tau deposition were determined for THK53151 with the 40-60 min SUV and for AV1451 with for the 80-100 min SUV. Standard SUVR was generated by using cerebellar cortex as reference. To control the variation of SUVR measures in THK5351 and AV1451 PET caused by the off-target binding in reference region, each subject's SUV images were first transferred into standardized SUVP images, using the Peak-alignment method (as described above). In order to compare the regional SUV distribution patterns on group level, the whole brain probability density function (PDFwb) of SUVP were computed for each subject by normalizing the histograms of a subject's SUVP with the total number of intracranial voxels of that subject. Finally, the group average whole brain probability density function (PDFwb) were computed by averaging the individual subjects' PDFwb within 4 compare groups (2 tracers×2 conditions). One important advantage of SUVP over SUVR is that the Peak-alignment method standardized the range of whole brain SUV (marked in FIG. 2) into [−3,3] approximately, regardless of tracer or disease condition, thus allowing universal cutoff for different tracers, while SUVR cutoffs are tracer-dependent (e.g. 1.5 for THK and 1.19 for AV1451). Here, 1.5 is used for SUVP cutoff, representing 1.5 times std from whole brain mode. The positive binding percentage: PBP=(number of positive bring voxels)/(total number of voxels), are computed for both SUVP and SUVR in different brain tissues.
To compare the classification accuracy of AD and NL using mean SUVR and PBP (SUVR and SUVP), the ROC curve was computed and the area under curve (AUC) was computed.
We also computed the diagnostic accuracy in terms of AUC, as specified in Method section. […] The AD-NL ratio obtained using (average PBP of AD group)/(average PBP of NL group).

SMILES | regions with off-target binding [1] | SUVR, Basal ganglia ([2]; AD patients) | SUVR, Cerebral GM ([2]; AD patients) | SUVR, Cerebral WM ([2]; AD patients) | SUVR, Frontal cortex ([2]; AD patients) | SUVR, Occipital cortex ([2]; AD patients) | SUVR, Parietal cortex ([2]; AD patients) | SUVR, Temporal cortex ([2]; AD patients) | SUVR, Basal ganglia ([2]; NL subjects) | SUVR, Cerebral GM ([2]; NL subjects) | SUVR, Cerebral WM ([2]; NL subjects) | SUVR, Frontal cortex ([2]; NL subjects) | SUVR, Occipital cortex ([2]; NL subjects) | SUVR, Parietal cortex ([2]; NL subjects) | SUVR, Temporal cortex ([2]; NL subjects) | GMSUVR (Cerebral GM tracer retention) [2] | WMSUVR (Cerebral WM tracer retention) [2] | AD-NL ratio R = (average PBP of AD group)/(average PBP of NL group), SUVP [3] | AD-NL ratio R = (average PBP of AD group)/(average PBP of NL group), SUVR [3] | AD-NL ratio (R), SUVP PBP [3] | other results
CNc1ccc(-c2ccc3cc(OC[C@H](O)CF)ccc3n2)cn1 [THK5351] | ponds and Amygdala; also recorded: cerebral white matter and basal ganglia region | 2.62(.26)^ | 1.55(.16)^+ | 1.78(.14)^+ | 1.38(.18) | 1.42(.16)^+ | 1.46(.12) | 1.88(.22)*^+ | 2.64(.31) | 1.39(.20) | 1.56(.20) | 1.32(.20) | 1.22(.13) | 1.30(.24) | 1.57(.21) | 1.47(0.19) | 1.67(0.20) | 3.1248 | 1.2747 | 2.39 | AD-NL ratio (R), SUVR PBP [3]: 1.25
[18F]c1ccc(-c2ccc3c(c2)[nH]c2ccncc23)cn1 [AV-1451] | choroidal plexus and substantia nigra; also recorded: cerebral white matter and basal ganglia region | 1.30(.10) | 1.24(.25)^+ | 1.27(.18) | 1.18(.23) | 1.17(.13) | 1.25(.30) | 1.41(.35)*^+ | 1.30(.09) | 1.09(.09) | 1.18(.09) | 1.06(.07) | 1.09(.09) | 1.07(.10) | 1.18(.16) | 1.15(0.18) | 1.21(0.13) | 4.4004 | 1.3258 | 3.69 | regions with off-target binding ([1]; listed as AV1451): cerebellum; AD-NL ratio (R), SUVR PBP [3]: 1.3
